Source: patent US20020147137A1, “Medical use of alpha1-acid glycoprotein (AAG) or orosomucoid” (Hamosan Erzeugung Pharmazeutischer Grundstoffe Gesellschaft …, priority 1999, published 2002)

Legend:
[1] = Withdrawal by means of plasma exchange (comparative): methadone, methadone metabolites and thebaine measured in urine; conditions: for Substance measured in urine: before 1. PE / before therapy; for concentration at 1 day / concentration at 2 day / concentration at 3 day / concentration at 4 day / concentration at 5 day / concentration at 6 day / concentration at 7 day / concentration at 17 day / concentration at 24 day / concentration at 31 day: human, in vivo
From the text: In the withdrawal therapy of a methadone addict, one of the inventors has practised the method of plasma exchange (PE) for assisting and accelerating the removal of methadone from the body, i.e., blood was taken from the patient, the cellular components were separated and re-infused into the body, and instead of the patient's own plasma portion, the plasma of a donor was supplied.
The patient was 2 x connected to the plasmapheresis (1st and 3rd day). […] Besides, the coagulation parameters were measured because of the hypercoagulability.

[2] = test system: patient in methadone withdrawal; test: Methadone withdrawal by administration of α1-acid glycoprotein: clinical course; format: in vivo, human (patient)
Description: The patient's circulation is stable, the patient is co-operative, a venous cannula and a peripheral venous catheter on the left side are set. Immediately after admission, beginning of sedation with Dormicum 0.4 mg/kg/d, Clonidin 0.02 mg/kg/d. Dormicum bolus administration at admission.
Volume substitution with Elohaest, human albumin and electrolyte solution.
From 4:05 p.m. to 4:15 p.m., renewed hemodilution: 400 ml of own blood was drawn.
Urinating is without any problems and spontaneous.
The patient's only problems are nicotine withdrawal.
Therapy with Clonidin and Dormicum is changed to oral (4×0.075 mg Catapresan and 4×7.5 mg Dormicum per os) with sufficient magnesium substitution in addition. Subjectively, the patient feels well and is free from any discomfort.
Removal of the peripheral venous catheter, continuation of the oral therapy, the patient is moved to the LNKH while being in a good general state and subjectively feeling well.

[3] = test system: isolated perfused rat livers; conditions: protein added to perfusate; cited from earlier work

## COC1=CC=C2[C@H]3Cc4ccc(OC)c5c4[C@@]2(CCN3C)[C@H]1O5 [thebaine]
[1]
  Substance measured in urine: 7 µg/mL
  concentration at 1 day: 0 ng/mL
  concentration at 2 day: 0 ng/mL
  concentration at 3 day: 0 ng/mL
  concentration at 4 day: 0 ng/mL
  concentration at 5 day: 0 ng/mL
  concentration at 6 day: 0 ng/mL
  concentration at 7 day: 0 ng/mL
  concentration at 17 day: 0 ng/mL
  concentration at 24 day: 0 ng/mL
  concentration at 31 day: 0 ng/mL

## CCC(=O)C(CC(C)N(C)C)(c1ccccc1)c1ccccc1 (racemic) [methadone, reference compound]
[1]
  Substance measured in urine: 15 µg/mL
  concentration at 1 day: 3000 ng/mL
  concentration at 2 day: 1900 ng/mL
  concentration at 3 day: 500 ng/mL
  concentration at 4 day: 500 ng/mL
  concentration at 5 day: 400 ng/mL
  concentration at 6 day: 300 ng/mL
  concentration at 7 day: 500 ng/mL
  concentration at 17 day: 0 ng/mL
  concentration at 24 day: 0 ng/mL
  concentration at 31 day: 0 ng/mL

## α1-acid glycoprotein
[2]; 3 grams in 500 ml of infusion solution at 10 a.m.
  tolerability after first administration: first symptoms with slight sweating, otherwise no problems so far
[2]; 6 grams in merely 150 ml of infusion solution at 4:30 p.m.
  acute reaction after second administration: symptoms of an acute reaction, similar to an allergy
[2]; 9/20/97, day after AAG administration
  physical withdrawal symptoms: no physical withdrawal symptoms
[2]; 9/21/97, second day after AAG administration
  physical withdrawal symptoms: no particular physical withdrawal symptoms
[2]; after the short crisis following the 2nd partial amount
  withdrawal symptoms after AAG administration: intensive recovery phase without any withdrawal symptoms
[2]; methadone withdrawal with AAG, 2nd patient
  total time until treatment could be terminated: three
[3]
  influence on elimination of drugs capable of being bound: slowed down
  influence on elimination of nonbinding drugs: no influence
